Experiments:
[1] = target: T1, E. coli pNAPT-7 cell lysate (Bacillus subtilis, UniProt Q59248); test: hydrolysis of ester substrates by E. coli pNAPT-7 cell lysate (Example 13); format: biochemical, Bacillus subtilis Thai I-8; details: for enzyme activity on substrate: 25° C., 0.1 MOPS pH 7.5, 0.3 mg ester/ml, 2% Tween, 1 mg/ml BSA, 2 hours
T1 construct: ammonium sulphate-precipitated, ultrafiltered lysate; about 31 kDa, untagged wild type
Method: The E. coli pNAPT-7 cell lysate after ammonium sulphate precipitation and ultrafiltration was tested on the hydrolysis of the ethyl ester of R and S-ibuprofen.
The enzyme activity was assayed at 25° C. in 0.1 MOPS buffer pH 7.5 with 0.3 mg of R or S-ibuprofen ethyl ester/ml, 2% Tween and 1 mg/ml BSA. After 2 hours incubation the reaction was stopped by the addition of acetonitrile.
The reaction mixture was analyzed on a HPLC-reversed phase column (Chrompack Polygosil 60D-10CN, 250×4.6 mm), eluted with 34% acetonitrile, 0.05M phosphoric acid pH 3.0 at a flow rate of 1.5 ml/min. Retention times for R and S-ibuprofen and the ethyl ester of R and S-ibuprofen were 5.98 minutes and 11.08 minutes respectively.

[2] = S-enantiomer vs antipode; cited from earlier work

T1 sequence (Q59248 entry or part of it): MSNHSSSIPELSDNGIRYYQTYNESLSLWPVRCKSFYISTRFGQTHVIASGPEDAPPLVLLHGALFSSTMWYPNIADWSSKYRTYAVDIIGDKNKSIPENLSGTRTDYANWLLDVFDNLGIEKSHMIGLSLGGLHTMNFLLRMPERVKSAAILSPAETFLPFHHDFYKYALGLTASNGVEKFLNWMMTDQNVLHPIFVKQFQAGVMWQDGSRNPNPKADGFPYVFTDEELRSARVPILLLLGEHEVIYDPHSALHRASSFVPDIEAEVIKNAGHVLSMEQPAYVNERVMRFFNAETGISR

| Compound | enzyme activity on substrate [1] | S-specificity ([1]; Table 12, ibuprofen ethyl ester) | hydrolysis relative to the hydrolysing activity of the methyl ester of S-naproxen ([1]; tested under the same conditions) | in vitro anti-inflammatory activity of the S-enantiomer relative to its antipode [2] |
| --- | --- | --- | --- | --- |
| CCOC(=O)[C@H](C)c1ccc(CC(C)C)cc1 [R-ibuprofen ethyl ester, ethyl 2-(4-isobutyl-1-phenyl) propionate] | 1865 u/l |  |  |  |
| CCOC(=O)[C@@H](C)c1ccc(CC(C)C)cc1 [S-ibuprofen ethyl ester, ethyl 2-(4-isobutyl-1-phenyl) propionate] | 39600 u/l | 95.3% | 60% |  |
| COC(=O)[C@@H](C)c1ccc2cc(OC)ccc2c1 [S-naproxen methyl ester, methyl 2-(6-methoxy-2-naphthyl) propionate] | 65000 u/l |  |  |  |
| CC(C)Cc1ccc([C@H](C)C(=O)O)cc1 [ibuprofen, 2-(4-isobutyl-1-phenyl) propionic acid] |  |  |  | up to 150 times |
| COc1ccc2cc([C@H](C)C(=O)O)ccc2c1 [naproxen, 2-(6-methoxy-2-naphthyl) propionic acid] |  |  |  | up to 150 times |
